The values that follow come from article PMC12004362 (RSC Advances, 2025).

For data set [1], the system named is BT-12 cells. Put plainly: Secondary screening. Type of data set: cell-based, human.
Data set [2] concerns BT-16 cells. Put plainly: Secondary screening. Type of data set: cell-based, human.
Data set [3] concerns human cerebral microvascular endothelial cells (hCMEC/D3 cells).
The nature of data set [4]: in vitro. The conditions noted are these: human.
The nature of data set [5]: in vitro. As to conditions: human, primary human astrocytes.
Data set [6] relates to primary human astrocytes. Put plainly: Cytotoxicity test.
The conditions of data set [7]: acute use for gout flares, doses up to 1.8 mg within 2 hours; cited from earlier work.
[8] abbreviates: Homo sapiens, BT-12, 72 h, read-out: BT-12 cells IC50, 2D culture, 72 h, MTT.
The mark [9] stands for this setting: Homo sapiens, BT-16, 72 h, read-out: BT-16 cells IC50, 2D culture, 72 h, MTT.
The mark [10] stands for this setting: read-out: BT-12 cells IC50, 2D culture, 72 h, MTT.
Setting [11] is: read-out: BT-16 cells IC50, 2D culture, 72 h, MTT.

As a reminder, the IC50 is the midpoint of a concentration-inhibition curve.

Molecules are shown by their SMILES. Like-named read-outs stand apart in the source and are kept apart here. Bounds are passed on as bounds.

Regarding `COc1cccc2c1C(=O)c1c(O)c3c(c(O)c1C2=O)C[C@@](O)(C(=O)CO)C[C@@H]3O[C@H]1C[C@H](N)[C@H](O)[C@H](C)O1` [Doxorubicin], the IC50 was 28 nM in data set [1] (setting [8]) and 42 nM in data set [2] (setting [9]). Also, the “SI (CC50/IC50) hCMEC/D3: BT-12” value in data set [3] (CC50 hCMEC/D3 / IC50 BT-12) stood at 24.964. The “SI (CC50/IC50) hCMEC/D3: BT-16” value in data set [3] (CC50 hCMEC/D3 / IC50 BT-16) was determined as 16.64. In addition, the CC50 at 72 h in data set [4] was 699 nM; in data set [5] it was 131 nM. For the same molecule, in data set [6] (CC50 astrocytes / IC50 BT-12), the “SI (CC50/IC50) Astrocytes: BT-12” value is recorded as 4.679. Further, in data set [6] (CC50 astrocytes / IC50 BT-16), the “SI (CC50/IC50) Astrocytes: BT-16” value is given as 3.119.

`C[C@H]1O[C@@H](O[C@H]2[C@@H](O)C[C@H](O[C@H]3[C@@H](O)C[C@H](O[C@H]4CC[C@@]5(C)[C@H](CC[C@@H]6[C@@H]5C[C@@H](O)[C@]5(C)[C@@H](C7=CC(=O)OC7)CC[C@]65O)C4)O[C@@H]3C)O[C@@H]2C)C[C@H](O)[C@@H]1O` [Digoxin]: the half-inhibitory concentration (IC50) is below 100 nM in data set [1] (setting [8]), 80 nM in data set [1] (setting [10]), below 100 nM in data set [2] (setting [9]) and 76 nM in data set [2] (setting [11]).

`CC[C@H]1CN2CCc3cc(OC)c(OC)cc3[C@@H]2C[C@@H]1C[C@H]1NCCc2cc(OC)c(OC)cc21` [Emetine]: the IC50 was below 100 nM in data set [1] (setting [8]), 90 nM in data set [1] (setting [10]), below 100 nM in data set [2] (setting [9]) and 93 nM in data set [2] (setting [11]). In data set [5], this molecule gave a CC50 at 72 h of 1240 nM.

Consider `COc1cc2c(c(OC)c1OC)-c1ccc(OC)c(=O)cc1[C@@H](NC(C)=O)CC2` [Colchicine], for which the “Diarrhea, most frequently reported side effect” value in data set [7] was 23%. The CC50 at 72 h in data set [4] and in data set [5] was above 20000 nM throughout.
